In patent publication US20240374692A1, “A NOVEL ACYLATED INSULIN ANALOG” (SUNSHINE LAKE PHARMA CO., LTD., priority 2021, published 2024):

Tested on: normal C57BL/6 mice
Experiment: Hypoglycemic effect, single subcutaneous administration to normal C57BL/6 mice
Type: in vivo
Set-up: blood glucose: unit not given here
Conditions: for blood glucose: Mean ± SEM, n = 6
Method in brief: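 Normal C57BL/6 mice, grouped by random blood glucose and body weight, received a single subcutaneous dose of compound or PBS vehicle and were not fasted. Random blood glucose was measured before dosing and at 0.25, 0.5, 1, 2, 4, 6, 8, 10, 24, 48, 54, 72 and 96 h. Data are Mean±SEM.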

[1] = single S.C., Degludec 200 nmol/Kg, others 1400 nmol/Kg

A14E, B16E, B25H, B29K(N(ε)-COOH(CH2)18CO-L-Lys-CO(CH2)2CO—(OEG)2), desB30 human insulin analog [Insulin-a3]
blood glucose (0 h (before administration), single S.C., Degludec 200 nmol/Kg, others 1400 nmol/Kg): 8.0 ± 1.0 | blood glucose (0.25 h after single S.C., Degludec 200 nmol/Kg, others 1400 nmol/Kg): 8.6 ± 1.0 | blood glucose (0.5 h after single S.C., Degludec 200 nmol/Kg, others 1400 nmol/Kg): 6.2 ± 0.4 | blood glucose compared with the control group (1 h after single S.C. administration): decreased significantly | blood glucose (1 h after single S.C., Degludec 200 nmol/Kg, others 1400 nmol/Kg): 4.9 ± 0.8 | blood glucose (2 h after single S.C., Degludec 200 nmol/Kg, others 1400 nmol/Kg): 4.5 ± 1.0 | blood glucose (4 h after single S.C., Degludec 200 nmol/Kg, others 1400 nmol/Kg): 3.9 ± 0.7 | blood glucose (6 h after single S.C., Degludec 200 nmol/Kg, others 1400 nmol/Kg): 3.7 ± 0.5 | blood glucose (8 h after single S.C., Degludec 200 nmol/Kg, others 1400 nmol/Kg): 3.8 ± 0.5 | blood glucose (10 h after single S.C., Degludec 200 nmol/Kg, others 1400 nmol/Kg): 3.5 ± 0.7 | blood glucose (24 h after single S.C., Degludec 200 nmol/Kg, others 1400 nmol/Kg): 2.9 ± 1.0 | blood glucose (48 h after single S.C., Degludec 200 nmol/Kg, others 1400 nmol/Kg): 4.2 ± 2.0 | blood glucose (72 h after single S.C., Degludec 200 nmol/Kg, others 1400 nmol/Kg): 5.4 ± 2.6 | blood glucose (96 h after single S.C., Degludec 200 nmol/Kg, others 1400 nmol/Kg): 8.8 ± 1.1 | effect on blood glucose control compared with Icodec (single S.C. 1400 nmol/Kg): slightly worse | effective blood glucose control time [1]: 96 h | time after administration at which blood glucose reached the lowest level [1]: 24 h
